Where “and” joins values, the source holds several entries; their conditions need not be identical. Equal values may be shown once.
Columns and labels:
Assay type in all cases: cell-based, Chinese hamster
[1] = test system: mAb1 cells (CHO-S cells expressing IgG1 mAb1); test: Fed-batch culture of mAb1 cells in deepwell plates (DWP): viable cell density, viability, titer
Procedure: (§1) First assays were performed with an antibody produced in a CHO cell line: CHO-S cells expressing IgG1 mAb1, herein “Cells mAb1” or “mAb1 cells”. “mAb1” is a fully human monoclonal antibody directed against a soluble protein. Its isoelectric point (pI) is about 8.20-8.30.
(§2) Cells expressing mAb1 were inoculated at 0.3×10^6 cells per millilitre (mL), whereas Cells expressing mAb2 were inoculated at 0.2×10^6 cells per millilitre (mL).
(§3) For examples 1-3: A serum-free chemically defined culture medium was used. It was used as it is, or it was supplemented with α- or β-2-F-peracetyl galactose (herein α- or β-2F-pGal; Biosynth & AX Molecules) at different concentrations (0-200 μM before seeding). The concentrations indicated on FIGS. 1, 2, 3 and 4 are the concentrations in α- or β-2F-pGal in the culture medium at day 0, just before the inoculation. The culture medium was fed, on a regular basis, with a chemically defined feed medium, as well as with glucose in order to keep said glucose level in the range of >0 to about 8 g/L (feeds are done at days 3, 5, 7, 10 and 12).
(§4) The cultures were performed in deepwell plates (DWP) with a working volume of 450 μL. They were incubated at 36.5° C., 5% de CO2, 90% humidity and shaken at 320 rpm. Each of the fed-batch culture lasted 14 days. It is well known that experiments in DWP are artificial, although they allow a first screening of culture conditions. In order to confirm that the results obtained in DWP were reproducible at higher scale, similar experiments were also run in TubeSpin® (also called herein shake tubes or ST), with a working volume of 30 mL cell culture (same culture condition than for deepwell plates).
For DWP experiments, viable cell density and viability were measured with the Guava easyCyte® flow cytometer. Antibody titers were measured with the fortéBIO Octet®.
(§5) The cells were cultivated and the results analysed as disclosed in the material and method section. It is noted that the controls (or control conditions) according to the present invention correspond to cells grown without peracetyl galactose.

[2] = test system: galactosylation of mAb1 antibody (mAb1 cells); test: Glycosylation profile of mAb1 produced in DWP (CGE-LIF)
Procedure: as §1, §3, §4
(§6) Glycosylation profiles were established by capillary gel electrophoresis with laser-induced fluorescence (CGE-LIF; for DWP and for Shake tubes experiments) or by Ultra Performance Liquid Chromatography-2-amino-benzamide labelling technique (2AB-UPLC; for Shake tubes experiments). Groups of glycans were defined as thereafter in Table 3.
as §5

[3] = test system: mAb1 cells (CHO-S cells expressing IgG1 mAb1); test: Fed-batch culture of mAb1 cells in TubeSpin (shake tubes): viable cell density, viability, titer
Procedure: as §1, §2, §3, §4
(§7) For TubeSpin® experiments, viable cell density and viability were measured with the ViCell®. Antibody titers were measured using Biacore®.

[4] = test system: galactosylation of mAb1 antibody (mAb1 cells); test: Glycosylation profile of mAb1 produced in TubeSpin (CGE-LIF); details: for monogalactosylated form changed by (Example 2.2) / total level of galactosylation decreased by (Example 2.2): shake tubes, CGE-LIF
Procedure: as §1, §3, §4, §6

[5] = test system: mAb2 cells (CHO-Ki cells expressing IgG1 mAb2); test: Fed-batch culture of mAb2 cells in TubeSpin: viable cell density, viability, titer
Procedure: (§8) Additional assays were performed with another antibody also produced in another CHO cell line: CHO-Ki cells expressing IgG1 mAb2, herein “Cells mAb2” or “mAb2 cells”. “mAb2” is a humanized monoclonal antibody directed against a receptor found on the cell membrane. Its isoelectric point (pI) is about 9.30.
as §2, §3, §4, §7

[6] = test system: galactosylation of mAb2 antibody (mAb2 cells); test: Glycosylation profile of mAb2 produced in TubeSpin (2AB-UPLC)
Procedure: as §8, §3, §4, §6

In the case of CC(=O)OC[C@H]1OC(OC(C)=O)[C@H](F)[C@@H](OC(C)=O)[C@H]1OC(C)=O (stereo in doubt) [α-2F-pGal, α/β-D-galactopyranose, 2-deoxy-2-fluoro-,1,3,4,6-tetraacetate], the “decrease of titers comparing to control” value ([1]; concentration higher than 60 μM) is reported as “about 1.2 factor”, the “impact on protein titre” value ([1]; concentrations between 30 and 60) is reported as “no impact on protein titre” and the “impact on cell growth” value ([1]; concentrations of about 60 μM and higher) is reported as “negative impact on cell growth”. The “impact on cell growth until the end of culture” value ([1]; concentrations up to 30 μM in medium) was “no impact on cell growth”, the “protein titer compared to the control” value ([1]; media concentration up to 60 μM, day 10 and day 14) was “stays above the protein titer of the control” and the “impact on cell density, cell viability and protein titer” value ([1]; media concentrations below 30 μM) was “do not impact”. For the same molecule, the “G1F absolute change compared to the control” value (shortened to “G1F absolute change”) ([2]; 30 μM) was 1.1%, the “G2F absolute change compared to the control” value (“G2F absolute change” for short) ([2]; 30 μM) was 0.2% and the “absolute change in galactosylated N-oligosaccharide compared to the control” value ([2]; 30 μM) was 1.3%. For the same molecule, the “relative decrease of galactosylated N-oligosaccharides compared to control” value (“relative decrease” below) ([2]; 30 μM) was 17%, the “galactosylated N-oligosaccharides of the protein” value ([2]; 30 μM in medium) was 8.3% and the “G1F absolute change” value ([2]; 60 μM) was 2.5%. For the same molecule, the “G2F absolute change” value ([2]; 60 μM) was 0.3%, the “absolute change in galactosylated N-oligosaccharide compared to the control” value ([2]; 60 μM) was 2.8% and the “relative decrease” value ([2]; 60 μM) was 32%. For the same molecule, the “galactosylated N-oligosaccharides of the protein” value ([2]; 60 μM in medium) was 6.8%, the “G1F absolute change” value ([2]; 120 μM) was 3.1% and the “G2F absolute change” value ([2]; 120 μM) was 0.35%. For the same molecule, the “absolute change in galactosylated N-oligosaccharide compared to the control” value ([2]; 120 μM) was 3.5%, the “relative decrease” value ([2]; 120 μM) was 40% and the “galactosylated N-oligosaccharides of the protein” value ([2]; 120 μM in medium) was 6.0%. The “G1F absolute change” value ([2]; 200 μM) was 4.4%, the “G2F absolute change” value ([2]; 200 μM) was 0.4% and the “absolute change in galactosylated N-oligosaccharide compared to the control” value ([2]; 200 μM) was 4.8%. The “relative decrease” value ([2]; 200 μM) was 52%, the “galactosylated N-oligosaccharides of the protein” value ([2]; 200 μM in medium) was 4.8% and the “inhibition effect on galactosylation” value ([2]; below 30) was “neither α- or β-2F-pGal does have a significant inhibition effect on galactosylation”. For the same molecule, the “inhibition effect on galactosylation” value ([2]; concentrations higher than 30 μM) was “a significant inhibition effect is observed”, the “product titer at the end of the culture (day 14)” value (shortened to “product titer at the end”) ([3]; 30 μM, shake tubes) was 2050 mg/L and the “product titer at the end” value ([3]; 60 μM, shake tubes, listed as α-2F-p-galactose) was 2130 mg/L. For the same molecule, the “product titer at the end” value ([3]; 90 μM, shake tubes) was 2225 mg/L, the “growth inhibitory effect in the first part of the culture” value ([3]; 30, 60 and 90 μM, shake tubes) was “no growth inhibitory effect” and the “cell densities compared to control from day 10 until the end of the culture” value ([3]; 30 and 90 μM, shake tubes) was “slightly lower”. For the same molecule, the “impact on cell growth or protein titer until the end of culture” value ([3]; any one of 30, 60 and 90 μM, TubeSpin) was “no negative impact on cell growth or protein titer”, the “effect on cell culture performance” value ([3]; between 0 and 90 μM α-2F-p-galactose, 60 μM β-2F-p-galactose, shake tubes) was “No detrimental effect” and the “protein titer compared to the control at culture days 5, 7, 10, 12 and 14” value ([3]; α 30-90 μM, β 60 μM, shake tubes, listed as α-2F-p-galactose) was “comparable at all time points”. The “G1F absolute change” value ([4]; 30 μM, TubeSpin) was 1.9%, the “G2F absolute change” value ([4]; 30 μM, TubeSpin) was 0.11% and the “relative decrease” value ([4]; 30 μM, TubeSpin) was “about 16%”. The “monogalactosylated form changed by (Example 2.2)” value (from here on “monogalactosylated form changed”) ([4]; 30 μM) was −1.9%, the “total level of galactosylation decreased by (Example 2.2)” value ([4]; 30 μM) was 2.0% and the “G1F absolute change” value ([4]; 60 μM, TubeSpin) was 4.3%. For the same molecule, the “G2F absolute change” value ([4]; 60 μM, TubeSpin) was 0.27%, the “absolute change of galactosylated N-oligosaccharides compared to the control” value ([4]; 60 μM, TubeSpin) was 4.61% and ~4.5% and the “relative decrease” value ([4]; 60 μM, TubeSpin) was ~37%. For the same molecule, the “total level of galactosylation decreased by (Example 2.2)” value ([4]; 60 μM) was 4.6%, the “monogalactosylated form changed” value ([4]; 60 μM, listed as α-2F-peracetyl-galactose) was −4.3% and the “G1F absolute change” value ([4]; 90 μM, TubeSpin) was 4.3%. The “G2F absolute change” value ([4]; 90 μM, TubeSpin) was 0.33%, the “relative decrease” value ([4]; 90 μM, TubeSpin) was ~36% and the “monogalactosylated form changed” value ([4]; 90 μM) was −4.3%. The “total level of galactosylation decreased by (Example 2.2)” value ([4]; 90 μM) was −4.5%, the “titer at day 7” value ([5]; 30 μM) was ~720 mg/L and the “titer at day 14” value ([5]; 30 μM) was 3400 to 3420 mg/L. The “titer at day 7” value ([5]; 60 μM) was ~720 mg/L, the “titer at day 14” value ([5]; 60 μM) was 3400 to 3420 mg/L and the “titer at day 7” value ([5]; 90 μM) was “about 670 mg/L”. The “titer at day 14” value ([5]; 90 μM) was ~3200 mg/L, the “peak viable cell density” value ([5]; 90 μM, shake tubes) was 10.0 ×106 viable cells/mL and the productivity ([5]; 30 and 60 μM) was “globally unchanged”. The “overall viable cell densities compared to the control” value ([5]; 30 and 60 μM, shake tubes) was “comparable to the control”, the “cell viability at day 7” value ([5]; entire supplement concentration range) was “about 97%” and the “viabilities compared to the control condition” value ([5]; entire supplement concentration range (30-90 μM)) was “comparable to the control condition”. For the same molecule, the “effect on the overall fucosylated species” value [6] was “+0.5%”, the “FA2G1 decrease (absolute change)” value ([6]; 30 μM) was −0.85% and the “change of the FA2G2 abundance” value ([6]; 30 μM) was −0.09%. The “reduction of galactosylation (absolute change)” value (from here on “reduction … (absolute change)”) ([6]; 30 μM) was −0.95%, the “FA2G1 decrease (absolute change)” value ([6]; 60 μM) was −1.85% and the “change of the FA2G2 abundance” value ([6]; 60 μM) was −0.19%. The “reduction … (absolute change)” value ([6]; 60 μM) was −2.05%, the “FA2G1 decrease (absolute change)” value ([6]; 90 μM) was −1.2% and the “change of the FA2G2 abundance” value ([6]; 90 μM) was −0.19%. For the same molecule, the “reduction … (absolute change)” value ([6]; 90 μM) was −1.4%.

— patent publication US11118208B2, “Methods for modulating protein galactosylation profiles of recombinant proteins using peracetyl galactose” (ARES TRADING S.A., priority 2016, dated 2021)
